Series [1] has as its system S. aureus ATCC 43300 (MRSA). The series is described as follows: MIC against S. aureus ATCC 43300 (MRSA), CO-ADD. In kind it is cell-based, Staphylococcus aureus. Conditions: Staphylococcus aureus; S. aureus ATCC 43300 (MRSA); mean of two experiments; read-out: MIC S. a. An excerpt: (§1) Antimicrobial evaluation of the pure compounds against A. baumannii ATCC 19606, Candida albicans ATCC 90028, Cryptococcus neoformans ATCC 208821, E. coli ATCC 25922, K. pneumoniae ATCC 700603, P. aeruginosa ATCC 27853, and S. aureus ATCC 43300 (MRSA) was undertaken at the Community for Open Antimicrobial Drug Discovery at The University of Queensland (St. Lucia, Queensland, Australia) according to standard protocols as previously described.

Another series deals with E. coli ATCC 25922. Nature of the series: MIC against E. coli ATCC 25922, CO-ADD. Conditions: Escherichia coli, ATCC25922; E. coli ATCC 25922; mean of two experiments; read-out: MIC E. c. Type of series: cell-based.
Source text: as §1

Series [2] has as its system K. pneumoniae ATCC 700603. Nature of the series: MIC against K. pneumoniae ATCC 700603, CO-ADD. In kind it is cell-based. The conditions noted are these: Klebsiella pneumoniae, ATCC700603; K. pneumoniae ATCC 700603; mean of two experiments; read-out: MIC K. p.
Source text: as §1

The test system of a further series is P. aeruginosa ATCC 27853. The series is described as follows: MIC against P. aeruginosa ATCC 27853, CO-ADD. Type of series: cell-based. Conditions: Pseudomonas aeruginosa, ATCC27853; P. aeruginosa ATCC 27853; mean of two experiments; read-out: MIC P. a.
Source text: as §1

Another series relates to A. baumannii ATCC 19606. Nature of the series: MIC against A. baumannii ATCC 19606, CO-ADD. Type of series: cell-based. Conditions: Acinetobacter baumannii, ATCC19606; A. baumanii ATCC 19606; mean of two experiments; read-out: MIC A. b.
Source text: as §1

Another series deals with C. albicans ATCC 90028. The series is described as follows: MIC against C. albicans ATCC 90028, CO-ADD. Type of series: cell-based, Candida albicans.
Source text: as §1

Series [3] deals with C. neoformans ATCC 208821. Nature of the series: MIC against C. neoformans ATCC 208821, CO-ADD. In kind it is cell-based. Conditions: Cryptococcus neoformans, ATCC208821; C. neoformans ATCC 208821; mean of two experiments; read-out: MIC C. n.
Source text: as §1

The test system of a further series is human red blood cells. Conditions: human.
The subject of the next series is E. coli. Details: method as in PMID 4629229. The conditions noted are these: disk diffusion assays; cited from earlier work. For orientation: In agar diffusion tests the substance spreads into inoculated agar from a disc or well.
A further series deals with Bacillus subtilis. More on the design: method as in PMID 4629229. The conditions noted are these: disk diffusion assays; cited from earlier work.
In a further series the test system is Aspergillus flavus. More on the design: method as in PMID 4629229, PMID 9797310, PMID 19801865. Conditions: cited from earlier work.
A short description of a further series: in vitro. Conditions: human.
For another series, the system named is M. marinum BSG101. Nature of the series: Antimycobacterial bioluminescence assay of pure compounds, M. marinum. Conditions: Mycobacterium marinum, BSG101, 72 h.

Consider one compound from paper PMC9920077, “Antimicrobial Natural Products from Plant Pathogenic Fungi” (Molecules, 2023).

The structures appear in SMILES notation. Values after ≈ are worked out from the molar mass of the structure shown.

Description for M. marinum BSG101: Antimicrobial evaluation against M. abscessus and M. marinum was undertaken using in-house assays with the bioluminescent derivatives M. abscessus BSG301 [63] and M. marinum BSG101 [64]. […] Specifically, mycobacterial cultures were grown with shaking at 200 rpm in Middlebrook 7H9 broth (Fort Richard, Auckland, New Zealand) supplemented with 10% Middlebrook ADC enrichment media (Fort Richard, Auckland, New Zealand), 0.4% glycerol (Sigma-Aldrich, St. Louis, MO, USA), and 0.05% tyloxapol (Sigma-Aldrich, St. Louis, MO, USA). M. abscessus was grown at 37 °C and M. marinum at 28 °C. Cultures were grown until they reached the stationary phase (approximately 3–5 days for M. abscessus BSG301 and 7–10 days for M. marinum BSG101) and then diluted in MHB supplemented with 10% Middlebrook ADC enrichment media and 0.05% tyloxapol to give an optical density at 600 nm (OD600) of 0.001, which is the equivalent of ~10^6 bacteria per mL. Pure compounds were dissolved in DMSO and added to the wells of a black 96-well plate (Nunc, Thermo Scientific, Waltham, MA, USA) at doubling dilutions with a maximum concentration of 128 mg/mL. […] Bacterial luminescence was measured at regular intervals over 72 h using a Victor X-3 luminescence plate reader with an integration time of 1 s. […]
Description for in vitro: All compounds were also evaluated for their cytotoxicity against human embryonic kidney cells (HEK-293) and any haemolytic activity against human red blood cells.

For the compound `C[C@@H]1C[C@H]2O[C@@H]2/C=C\C=C\C(=O)Cc2c(Cl)c(O)cc(O)c2C(=O)O1` [compound 10, radicicol], the MIC (as a rule, the lowest concentration found to suppress growth) in series [1] was more than 88 µM; with E. coli ATCC 25922, more than 88 µM; in series [2] it was more than 88 µM; in the series on P. aeruginosa ATCC 27853, more than 88 µM; in the series on A. baumannii ATCC 19606 it was more than 88 µM; in the series on C. albicans ATCC 90028 (Candida albicans, ATCC90028, C. albicans ATCC 90028, mean of two experiments, read-out: MIC C. a), 44 µM (≈ 16.1 µg/mL). In addition, the MIC in series [3] is more than 88 µM; against M. marinum BSG101 it was 64 µg/mL (≈ 175 µM). For the same compound, the “antifungal activity against C. albicans” value with C. albicans ATCC 90028 (C. albicans) is “moderate antifungal activity”. Besides, in the series with human red blood cells, the HC10 was more than 88 µM. Also, in the series on E. coli, the “activity against E. coli” value was “none of the compounds were active”. Also, the “activity against B. subtilis” value in the series on Bacillus subtilis is on record as “active”. Moreover, the “activity against Aspergillus flavus” value in the series with Aspergillus flavus was “activity”. For the same compound, the CC50 in the series “in vitro” was more than 88 µM.
